The values below come from patent publication US20260060961A1, “SUBSTITUTED HETEROCYCLES AS RAS INHIBITORS” (Jazz Pharmaceuticals Ireland Limited, priority 2022, published 2026).

In the assay the target is Recombinant human KRAS protein containing the G12C amino acid substitution (Homo sapiens (Human), UniProt P01116, G12C). The experiment in a line: HTRF nucleotide exchange assay, KRAS G12C. The following applies: 180 minute incubation with compound at room temperature; at least two independent replicates; read-out: KRAS G12C HTRF NEA IC50. Format: biochemical. Here is the method: The capacity of compounds to bind KRAS G12C and KRAS wildtype was quantified using a HTRF nucleotide exchange assay. Recombinant human KRAS protein (5 nM; aa1-188 KRAS WT or KRAS containing the G12C amino acid substitution, an N-terminal 6×His-tag and leader sequence), and 2 nM Europium-labeled anti-6×His antibody were mixed in assay buffer (10 mM HEPES pH7.3, 75 mM NaCl, 5 mM MgCl2, 0.05% BSA, 0.0025% NP-40 and 100 mM KF) with various concentrations of compound in a 384-well plate and a volume of 5 μL. After a 180 minute incubation at room temperature, 5 μl of 200 nM EDA-GTP-DY647P1 diluted in assay buffer was added to the plate. Following 30-minute incubation at room temperature, time-resolved fluorescence was measured on a PerkinElmer Envision plate reader. DMSO (0.3%) and unlabeled GDP (1 μM) or equivalent tool compound were used to generate the Max and Min assay signals, respectively. Data was analysed using a four-parameter logistic model to calculate IC50 values, with at least two independent replicates were performed for each compound.

Each structure is given as a SMILES string.

Sequence of Recombinant human KRAS protein containing the G12C amino acid substitution (P01116 other isoform, or with tags, fused parts or gaps G12C): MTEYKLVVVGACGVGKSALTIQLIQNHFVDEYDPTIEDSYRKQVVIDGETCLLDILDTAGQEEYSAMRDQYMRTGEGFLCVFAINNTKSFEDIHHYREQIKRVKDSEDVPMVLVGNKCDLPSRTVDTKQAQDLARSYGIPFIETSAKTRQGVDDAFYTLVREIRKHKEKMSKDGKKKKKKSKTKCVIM

For the compound `C=CC(=O)N1CC2(CC(c3nc(-c4ccc5c(cnn5C)c4)c(-c4c(C)ccc5[nH]ncc45)n3C)C2)C1` [Example 1, 1-[6-[1-methyl-4-(1-methylindazol-5-yl)-5-(5-methyl-1H-indazol-4-yl)imidazol-2-yl]-2-azaspiro[3.3]heptan-2-yl]prop-2-en-1-one], the IC50 (in general, the concentration needed to halve the response being measured) is no more than 1 µM.
Under `C=CC(=O)N1CC2(CC(c3nc(-c4ccccc4)c(-c4c(C)ccc5[nH]ncc45)n3C)C2)C1` [Example 2, 1-[6-[1-methyl-5-(5-methyl-1H-indazol-4-yl)-4-phenyl-imidazol-2-yl]-2-azaspiro[3.3]heptan-2-yl]prop-2-en-1-one] stands 1 to 10 µM.
As for `C=CC(=O)N1CC2(CC(c3nc(-c4cccnc4)c(-c4c(C)ccc5[nH]ncc45)n3C)C2)C1` [Example 3, 1-[6-[1-methyl-5-(5-methyl-1H-indazol-4-yl)-4-(3-pyridyl)imidazol-2-yl]-2-azaspiro[3.3]heptan-2-yl]prop-2-en-1-one], the figure is no less than 10 µM.
Under `C=CC(=O)N1CC2(CC(c3nc(-c4ccc(OC)cc4F)c(-c4c(C)ccc5[nH]ncc45)n3C)C2)C1` [Example 4, 1-[6-[4-(2-fluoro-4-methoxy-phenyl)-1-methyl-5-(5-methyl-1H-indazol-4-yl)imidazol-2-yl]-2-azaspiro[3.3]heptan-2-yl]prop-2-en-1-one] stands 1 to 10 µM; under `C=CC(=O)N1CC2(CC(c3nc(-c4ccc(N5CCOCC5)cc4)c(-c4c(C)ccc5[nH]ncc45)n3C)C2)C1` [Example 5, 1-[6-[1-methyl-5-(5-methyl-1H-indazol-4-yl)-4-(4-morpholinophenyl)imidazol-2-yl]-2-azaspiro[3.3]heptan-2-yl]prop-2-en-1-one], no more than 1 µM.
Turning to `C=CC(=O)N1CC2(CC(c3nc(-c4cccc(N5CCOCC5)c4)c(-c4c(C)ccc5[nH]ncc45)n3C)C2)C1` [Example 6, 1-[6-[1-methyl-5-(5-methyl-1H-indazol-4-yl)-4-(3-morpholinophenyl)imidazol-2-yl]-2-azaspiro[3.3]heptan-2-yl]prop-2-en-1-one], the IC50 was 1 to 10 µM.
Under `C=CC(=O)N1CC2(CC(c3nc(-c4ccc5cnn(C)c5c4)c(-c4c(C)ccc5[nH]ncc45)n3C)C2)C1` [Example 7, 1-[6-[1-methyl-4-(1-methylindazol-6-yl)-5-(5-methyl-1H-indazol-4-yl)imidazol-2-yl]-2-azaspiro[3.3]heptan-2-yl]prop-2-en-1-one] stands 1 to 10 µM; under `C=CC(=O)N1CC2(CC(c3nc(-c4ccc(-n5cnc(C6CC6)c5)cc4)c(-c4c(C)ccc5[nH]ncc45)n3C)C2)C1` [Example 8, 1-[6-[4-[4-(4-cyclopropylimidazol-1-yl)phenyl]-1-methyl-5-(5-methyl-1H-indazol-4-yl)imidazol-2-yl]-2-azaspiro[3.3]heptan-2-yl]prop-2-en-1-one], 1 to 10 µM; under `C=CC(=O)N1CC2(CC(c3nc(-c4ccc5c(c4)nc(C)n5C)c(-c4c(C)ccc5[nH]ncc45)n3C)C2)C1` [Example 9, 1-[6-[4-(1,2-dimethylbenzimidazol-5-yl)-1-methyl-5-(5-methyl-1H-indazol-4-yl)imidazol-2-yl]-2-azaspiro[3.3]heptan-2-yl]prop-2-en-1-one], 1 to 10 µM.
As for `C=CC(=O)N1CC2(CC(c3nc(-c4cnn(CCN5CCOCC5)c4)c(-c4c(C)ccc5[nH]ncc45)n3C)C2)C1` [Example 10, 1-[6-[1-methyl-5-(5-methyl-1H-indazol-4-yl)-4-[1-(2-morpholinoethyl)pyrazol-4-yl]imidazol-2-yl]-2-azaspiro[3.3]heptan-2-yl]prop-2-en-1-one], the figure is no less than 10 µM; as for `C=CC(=O)N1CC2(CC(c3nc(-c4ccc5c(cnn5C)c4C)c(-c4c(C)ccc5[nH]ncc45)n3C)C2)C1` [Example 11, 1-[6-[4-(1,4-dimethylindazol-5-yl)-1-methyl-5-(5-methyl-1H-indazol-4-yl)imidazol-2-yl]-2-azaspiro[3.3]heptan-2-yl]prop-2-en-1-one], 1 to 10 µM; as for `C=CC(=O)N1CC2(CC(c3nc(-c4cn(C)nc4C)c(-c4c(C)ccc5[nH]ncc45)n3C)C2)C1` [Example 12, 1-[6-[4-(1,3-dimethylpyrazol-4-yl)-1-methyl-5-(5-methyl-1H-indazol-4-yl)imidazol-2-yl]-2-azaspiro[3.3]heptan-2-yl]prop-2-en-1-one], no less than 10 µM.
Turning to `C=CC(=O)N1CC2(CC(c3nc(-c4cnn(CC)c4)c(-c4c(C)ccc5[nH]ncc45)n3C)C2)C1` [Example 13, 1-[6-[4-(1-ethylpyrazol-4-yl)-1-methyl-5-(5-methyl-1H-indazol-4-yl)imidazol-2-yl]-2-azaspiro[3.3]heptan-2-yl]prop-2-en-1-one], the IC50 was no less than 10 µM.
In the case of `C=CC(=O)N1CC2(CC(c3nc(-c4ccc5nn(C)cc5c4)c(-c4c(C)ccc5[nH]ncc45)n3C)C2)C1` [Example 14, 1-[6-[1-methyl-4-(2-methylindazol-5-yl)-5-(5-methyl-1H-indazol-4-yl)imidazol-2-yl]-2-azaspiro[3.3]heptan-2-yl]prop-2-en-1-one], the IC50 is no more than 1 µM.
`C=CC(=O)N1CC2(CC(c3nc(-c4cnn(CCOC)c4)c(-c4c(C)ccc5[nH]ncc45)n3C)C2)C1` [Example 15, 1-[6-[4-[1-(2-methoxyethyl)pyrazol-4-yl]-1-methyl-5-(5-methyl-1H-indazol-4-yl)imidazol-2-yl]-2-azaspiro[3.3]heptan-2-yl]prop-2-en-1-one]: the IC50 was no less than 10 µM.
As for `C=CC(=O)N1CC2(CC(c3nc(-c4ccc5c(c4)c(C)nn5C)c(-c4c(C)ccc5[nH]ncc45)n3C)C2)C1` [Example 16, 1-[6-[4-(1,3-dimethylindazol-5-yl)-1-methyl-5-(5-methyl-1H-indazol-4-yl)imidazol-2-yl]-2-azaspiro[3.3]heptan-2-yl]prop-2-en-1-one], the figure is 1 to 10 µM; as for `C=CC(=O)N1CC2(CC(c3nc(-c4ccc5ocnc5c4)c(-c4c(C)ccc5[nH]ncc45)n3C)C2)C1` [Example 17, 1-[6-[4-(1,3-benzoxazol-5-yl)-1-methyl-5-(5-methyl-1H-indazol-4-yl)imidazol-2-yl]-2-azaspiro[3.3]heptan-2-yl]prop-2-en-1-one], 1 to 10 µM; as for `C=CC(=O)N1CC2(CC(c3nc(-c4ccc5c(c4)OCCN5C)c(-c4c(C)ccc5[nH]ncc45)n3C)C2)C1` [Example 18, 1-[6-[1-methyl-4-(4-methyl-2,3-dihydro-1,4-benzoxazin-7-yl)-5-(5-methyl-1H-indazol-4-yl)imidazol-2-yl]-2-azaspiro[3.3]heptan-2-yl]prop-2-en-1-one], no more than 1 µM.
Under `C=CC(=O)N1CC2(CC(c3nc(-c4ccc(OCC(=O)N(C)C)cc4)c(-c4c(C)ccc5[nH]ncc45)n3C)C2)C1` [Example 19, N,N-dimethyl-2-[4-[1-methyl-5-(5-methyl-1H-indazol-4-yl)-2-(2-prop-2-enoyl-2-azaspiro[3.3]heptan-6-yl)imidazol-4-yl]phenoxy]acetamide] stands 1 to 10 µM; under `C=CC(=O)N1CC2(CC(c3nc(-c4ccc(OCC(=O)N5CCOCC5)cc4)c(-c4c(C)ccc5[nH]ncc45)n3C)C2)C1` [Example 20, 1-[6-[1-methyl-5-(5-methyl-1H-indazol-4-yl)-4-[4-(2-morpholino-2-oxo-ethoxy)phenyl]imidazol-2-yl]-2-azaspiro[3.3]heptan-2-yl]prop-2-en-1-one], 1 to 10 µM.
Consider `C=CC(=O)N1CC2(CC(c3nc(-c4ccc(C(=O)NCCN(C)C)cc4)c(-c4c(C)ccc5[nH]ncc45)n3C)C2)C1` [Example 22, N-[2-(dimethylamino)ethyl]-4-[1-methyl-5-(5-methyl-1H-indazol-4-yl)-2-(2-prop-2-enoyl-2-azaspiro[3.3]heptan-6-yl)imidazol-4-yl]benzamide], for which the concentration for half-maximal inhibition (IC50) lay within 1 to 10 µM.
In the case of `C=CC(=O)N1CC2(CC(c3nc(-c4ccc(C(=O)NCC(F)(F)F)c(OC)c4)c(-c4c(C)ccc5[nH]ncc45)n3C)C2)C1` [Example 23, 2-methoxy-4-[1-methyl-5-(5-methyl-1H-indazol-4-yl)-2-(2-prop-2-enoyl-2-azaspiro[3.3]heptan-6-yl)95midazole-4-yl]-N-(2,2,2-trifluoroethyl)benzamide], the IC50 is 1 to 10 µM.
Consider `C=CC(=O)N1CC2(CC(c3nc(-c4ccc5c(cnn5C)c4)c(-c4c(C)ccc5[nH]ncc45)n3CC)C2)C1` [Example 24, 1-[6-[1-ethyl-4-(1-methylindazol-5-yl)-5-(5-methyl-1H-indazol-4-yl)imidazol-2-yl]-2-azaspiro[3.3]heptan-2-yl]prop-2-en-1-one], for which the half-inhibitory concentration (IC50) was no more than 1 µM.
Under `C=CC(=O)N1CC2(CC(c3nc(-c4c(C)ccc5[nH]ncc45)c(-c4ccc5c(cnn5C)c4)n3C)C2)C1` [Example 25, 1-[6-[1-methyl-5-(1-methylindazol-5-yl)-4-(5-methyl-1H-indazol-4-yl)imidazol-2-yl]-2-azaspiro[3.3]heptan-2-yl]prop-2-en-1-one] stands no less than 10 µM; under `C=CC(=O)N1CC2(CC(c3nc(-c4ccc5c(cnn5C)c4)c(-c4cc(O)cc5ccccc45)n3C)C2)C1` [Example 26, 1-[6-[5-(3-hydroxy-1-naphthyl)-1-methyl-4-(1-methylindazol-5-yl)imidazol-2-yl]-2-azaspiro[3.3]heptan-2-yl]prop-2-en-1-one], no more than 1 µM.
